From patent US20150147403A1, “DERMATOLOGICAL COMPOSITION COMPRISING OLEOSOMES AND RETINOIDS, PROCESS FOR PREPARING THE SAME AND USE THEREOF” (GALDERMA RESEARCH & DEVELOPMENT, priority 2012, published 2015)

Assays:
Type in all cases: physicochemical
[1] = Solubility of compound A in various oily and aqueous solvents
From the text: (§1) The object of this preformulation study is to identify lipophilic and hydrophilic solvents in which compound A is soluble, and in which it is chemically stable.

[2] = Stability of compound A in solvents (HPLC-UV); settings: RT / 40° C.
Protocol: as §1
The stability of the active agent was evaluated by liquid chromatography coupled to a UV detector (HPLC-UV).

[3] = Stability study on compositions 1′ and 2: assay of compound A by HPLC; settings: under all the temperature conditions (4° C., RT, 40° C.); dissolved in the aqueous phase or in the oily liquid globules
Protocol: Composition 1′ of Example 2 and composition 2 of Example 3 were placed under various stability conditions: 4° C., room temperature and 40° C., for 3 months.
Compound A was assayed by HPLC. The results are expressed in mg/g.

[4] = in Caprylic/capric acid triglycerides (Miglyol 812N)
[5] = in PPG-15 stearyl ether (Arlamol E PSE15)
[6] = in Propylene glycol / absolute ethanol (20/80)

With CC(C)(C)c1cc(-c2cc(-c3ccc(C(=O)O)cc3)ccc2OCCO)ccc1N1CCCC1 [Compound A, 3″-tert-Butyl-4′-(2-hydroxyethoxy)-4″-pyrrolidin-1-yl-[1,1′;3′,1″]-terphenyl-4-carboxylic acid] the “Maximum solubility (% m/m)” value ([1]; in Absolute ethanol) was 0.92 % m/m, the “Maximum solubility (% m/m)” value [1, 4] was 0.019 % m/m and the “Maximum solubility (% m/m)” value [1, 5] was 0.292 % m/m. For the same molecule, the “Maximum solubility (% m/m)” value ([1]; in Phenoxyethanol) was 1.957 % m/m, the “Maximum solubility (% m/m)” value ([1]; in Propylene glycol) was 0.11 % m/m and the “Maximum solubility (% m/m)” value [1, 6] was 1.08 % m/m. For the same molecule, the Stability ([2]; in Absolute ethanol) was 3 months RT / 40 °C, the Stability [2, 4] was 6 months RT / 40 °C and the Stability [2, 5] was 6 months RT / 40 °C. The Stability ([2]; in Phenoxyethanol) was 6 months RT / 40 °C, the Stability [2, 6] was 6 months RT / 40 °C and the Stability ([2]; in Propylene glycol) was 3 months RT / 40 °C. The “Chemical stability of compound A in the compositions” value [3] was 3 months.
